According to US10233180B2, “Substituted nitrogen-containing heterocyclic derivatives, pharmaceutical compositions comprising the same and applications of antitumor thereof” (ZHEJIANG UNIVERSITY, priority 2014, dated 2019):
Read-outs that look alike come from different tables or passages of the source.

Assays:
Akt1 = molecular target: T1, Akt1 (Homo sapiens, UniProt P31749); assay: AKT1/PKBα KinEASE FP Fluorescein Green Assay (fluorescence polarization kinase kit); assay type: biochemical; conditions: 1 h reaction, read-out: Inhibitory activities against Akt1 (IC50)
T1 construct: purchased 32-021
Summary of the method: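 FP competition kinase assay: compounds (50 μM stock) with STK Substrate 3 and ATP, 1 h reaction at room temperature; stopped with stop/antibody mix, 4 h at room temperature, then polarization read. Inhibition derived from polarization values; IC50 calculated; triplicate wells.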

[1] = tested on: Human ovarian cancer cell strain OVCAR-8; assay: MTT assay, inhibition of tumor cell growth in vitro, 72 h; assay type: cell-based; conditions: OVCAR-8, MTT, read-out: Antitumor proliferative activities of tumor cell (IC50, μM) OVCAR-8
Summary of the method: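 OVCAR8 cells in RPMI 1640 plus FBS were seeded at 4000 cells/well and exposed for 72 h at 37 °C to compound at 50, 10, 2, 0.4 and 0.08 μM final, with 1% DMSO as blank. Inhibition was calculated from OD relative to control, and IC50 was derived by the Bliss method.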

[2] = tested on: human colon cancer cell strain HCT-116; assay: as above; assay type: cell-based; conditions: HCT-116, MTT, read-out: Antitumor proliferative activities of tumor cell (IC50, μM) HCT-116 (converted)
Summary of the method: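 Cells in RPMI 1640 with FBS, 4000 cells/well, exposed 72 h at 37 °C, 5% CO2 to final 50, 10, 2, 0.4 and 0.08 μM; 1% DMSO blank. MTT OD gives % inhibition versus control; IC50 derived by Bliss method.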

T1 sequence (P31749 whole entry): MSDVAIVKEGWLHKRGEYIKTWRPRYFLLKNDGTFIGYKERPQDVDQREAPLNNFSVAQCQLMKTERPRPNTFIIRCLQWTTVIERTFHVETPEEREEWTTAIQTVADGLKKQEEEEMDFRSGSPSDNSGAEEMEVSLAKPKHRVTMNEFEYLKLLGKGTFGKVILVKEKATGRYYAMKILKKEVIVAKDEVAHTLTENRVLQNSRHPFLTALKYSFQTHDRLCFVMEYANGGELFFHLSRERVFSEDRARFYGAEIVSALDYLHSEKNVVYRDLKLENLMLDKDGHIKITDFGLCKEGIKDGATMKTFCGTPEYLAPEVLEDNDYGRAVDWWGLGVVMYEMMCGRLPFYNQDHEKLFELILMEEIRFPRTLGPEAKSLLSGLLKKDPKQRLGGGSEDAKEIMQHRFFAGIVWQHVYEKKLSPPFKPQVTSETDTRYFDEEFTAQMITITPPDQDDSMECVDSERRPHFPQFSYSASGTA

Row | IC50 (Akt1) [nM] | IC50 ([1]; Homo sapiens) [µM] | IC50 ([2]; Homo sapiens) [µM] | Molecule | IC50 [1] [µM] | IC50 [2] [µM]
1 | 92 | 1.01 | 21.6 | Cn1ncc(Cl)c1-c1cc(C(=O)N[C@H]2CNCC[C@@H]2c2ccc(C(F)(F)F)cc2)oc1Cl (racemic) [Compound 30, 5-chloro-4-(4-chloro-1-methyl-1H-pyrazol-5-yl)-N-(3,4-trans-4-(4-trifluoromethylphenyl)piperidin-3-yl)furan-2-formamide] | – | –
2 | 0.7 | 0.04 | 0.08 | CC(O)c1cnn(C)c1-c1ccc(C(=O)N[C@@H]2CNCC[C@H]2c2cccc(F)c2)s1 (stereo partly drawn) [Compound 143, N-((3S, 4S)-4-(3-fluorophenyl)piperidin-3-yl)-5-(4-(1-hydroxyethyl)-1-methyl-1H-pyrazol-5-yl)thiophene-2-formamide] | – | –
3 | 12 | 1.05 | 6.56 | Cn1ncc(CO)c1-c1ccc(C(=O)N[C@@H]2CNCC[C@H]2c2cccc(F)c2)s1 [Compound 141, N-((3S, 4S)-4-(3-fluorophenyl)piperidin-3-yl)-5-(4-(hydroxylmethyl)-1-methyl-1H-pyrazol-5-yl)thiophene-2-formamide] | – | –
4 | 13 | 2.19 | 0.99 | CCc1cnn(C)c1-c1cc(F)c(C(=O)N[C@@H]2CNCC[C@H]2c2ccc(Cl)c(C(F)(F)F)c2)c(F)c1 [Compound 75, N-((3S,4S)-4-(4-chloro-3-(trifluoromethyl)phenyl)piperidin-3-yl)-4-(4-ethyl-1-methyl-1H-pyrazol-5-yl)-2,6-difluorobenzamide] | – | –
5 | 342 | 3.58 | 13.8 | Cn1ncc(Cl)c1-c1cc(C(=O)N[C@H]2CNCC[C@@H]2c2ccc(C(F)(F)F)cc2)oc1Cl [Compound 43, 5-chloro-4-(4-chloro-1-methyl-1H-pyrazol-5-yl)-N-((3R,4R)-4-(4-trifluoromethylphenyl)piperidin-3-yl)furan-2-formamide] | – | –
6 | 18 | 3.57 | 1.1 | Cn1ncc(Br)c1-c1ccc(C(=O)N[C@@H]2CNCC[C@H]2c2cc(F)c(F)c(F)c2)cc1 [Compound 81, 4-(4-bromo-1-methyl-1H-pyrazol-5-yl)-N-((3S,4S)-4-(3,4,5-trifluorophenyl)piperidin-3-yl)benzamide] | – | –
7 | 0.3 | 0.67 | 0.89 | Cn1ncc(Cl)c1-c1cc(C(=O)N[C@@H]2CNC(CCNS(C)(=O)=O)C[C@H]2c2ccc(F)c(F)c2)oc1Cl (stereo partly drawn) [Compound 127, 5-chloro-4-(4-chloro-1-methyl-1H-pyrazol-5-yl)-N-((3S,4S)-4-(3,4-difluorophenyl)-6-(2-(methylsulfonamido)ethyl)piperidin-3-yl)furan-2-formamide] | – | –
8 | 10 | 2.43 | 5.63 | Cn1ncc(Cl)c1-c1ccc(C(=O)N[C@@H]2CNCC[C@H]2c2ccc(F)c(F)c2)cc1-c1ccoc1 [Compound 87, 4-(4-chloro-1-methyl-1H-pyrazol-5-yl)-N-((3S,4S)-4-(3,4-difluorophenyl)piperidin-3-yl)-3-(furan-3-yl)benzamide] | – | –
9 | 8 | 4.89 | 4.14 | Cn1ncc(Cl)c1-c1cnc(C(=O)N[C@@H]2CNCC[C@H]2c2ccc(F)c(F)c2)c(F)c1 [Compound 97, 5-(4-chloro-1-methyl-1H-pyrazol-5-yl)-N-((3S,4S)-4-(3,4-difluorophenyl)piperidin-3-yl)-3-fluoropicolinamide] | – | –
10 | 0.8 | 0.78 | 0.56 | Cn1ncc(Cl)c1-c1cc(C(=O)N[C@@H]2CNC(CCN3CCCC(O)C3)C[C@H]2c2ccc(Cl)c(Cl)c2)oc1Cl (stereo partly drawn) [Compound 115, 5-chloro-4-(4-chloro-1-methyl-1H-pyrazol-5-yl)-N-((3S,4S)-4-(3,4-dichlorophenyl)-6-(2-(3-hydroxylpiperidin-1-yl)ethyl)piperidin-3-yl)furan-2-formamide] | – | –

Row | Molecule | IC50 (Akt1) [nM] | IC50 ([1]; Homo sapiens) [µM] | IC50 ([2]; Homo sapiens) [µM] | IC50 [1] [µM] | IC50 [2] [µM]
11 | 5-ethyl-1-methyl-4-(4-ethyl-1-methyl-1H-pyrazol-5-yl)-N-(3,4-trans-4-(piperidin-3-yl)piperidin-3-yl)-1H-pyrrole-2-formamide [Compound 17] | 28 | – | – | 1.43 | 3.4
